# Measurements reported in US10308607B2, “Fucosidase inhibitors” (HORIZON ORPHAN LLC, priority 2015, dated 2019).
# Where two headings read alike, the source gives them in different places.
# Assays:
# HUMSC = assay: Multiplexed cytotoxicity assay; format: cell-based; conditions: normal mesenchymal stem, 72 hour
# Description: (§1) To assess the cytotoxicity of compound II (see Example 2) in cancer and normal cells, the cells were grown in RPMI1640, 10% FBS, 2 mM L-alanyl-L-Glutamine, 1 mM Na Pyruvate or a special medium in a humidified atmosphere of 5% CO2 at 37° C. Cells were seeded into 384-well plates and incubated in a humidified atmosphere of 5% CO2 at 37° C. Compound II was added 24 hours post cell seeding. At the same time, a time zero untreated cell plate was generated.
# (§2) After a 72 hour incubation period, cells were fixed and stained with fluorescently labeled antibodies and nuclear dye to allow visualization of nuclei, apoptotic cells and mitotic cells. Apoptotic cells were detected using an anti-active caspase-3 antibody. Mitotic cells were detected using an anti phospho-histone-3 antibody.
# (§3) Compound II was serially diluted 3.16-fold and assayed over 9 concentrations. Automated fluorescence microscopy was carried out using a GE Healthcare IN Cell Analyzer 1000, and images were collected with a 4× objective.
# (§4) Twelve bit tiff images were acquired using the InCell Analyzer 1000 3.2 and analyzed with Developer Toolbox 1.6 software. EC50 and IC50 values were calculated using nonlinear regression to fit data to a sigmoidal 4 point, 4 parameter One-Site dose response model, where: y (fit)=A+[(B−A)/(1+((C/x)^D))]. Curve-fitting, EC50/IC50 calculations and report generation are performed using a custom data reduction engine MathIQ based software (AIM).
# (§5) The multiplexed cytotoxicity assay uses a cell image based analysis technique where cells are fixed and stained with fluorescently labeled antibodies and nuclear dye to visualize nuclei, and apoptotic and mitotic cells. Apoptotic cells are detected using an anti-active caspase-3 antibody. Mitotic cells are detected using an anti phospho-histone-3 antibody. Cell proliferation is measured by the signal intensity of the incorporated nuclear dye. The cell proliferation assay output is referred to as the relative cell count. To determine the cell proliferation end point, the cell proliferation data output is transformed to percent of control (POC) using the following formula: POC=relative cell count(compound wells)/relative cell count(vehicle wells)×100.
# (§6) Relative cell count IC50 is the test compound concentration at 50% of maximal possible response. A relative cell count EC50 is the test compound concentration at the curve inflection point or half the effective response (parameter C of the fitted curve solution). GI50 is the concentration needed to reduce the observed growth by half. This is the concentration that inhibits the growth midway between untreated cells and the number of cells seeded in the well (Time zero value).
# (§7) The activated caspase-3 marker labels cells from early to late stage apoptosis. The output is shown as a fold increase of apoptotic cells over vehicle background normalized to the relative cell count in each well. Concentrations of test compound that cause a 5-fold induction in the caspase-3 signal indicates significant apoptosis induction. Wells with concentrations higher than the relative cell count IC95 are eliminated from the caspase3 induction analysis.
# (§8) The phospho-histone-3 marker labels mitotic cells. The output is shown as a fold induction of mitotic cells over vehicle background normalized to the relative cell count in each well. When the fold induction of mitotic cell signal over background is ˜1, there is “no effect” on the cell cycle. Two or more fold increase in phospho-histone-3 signal over vehicle background indicates significant test compound induction of mitotic block.
# (§9) Two or more fold decrease in the phospho-histone-3 signal may indicate G1/S block only when cytotoxicity levels are below the measured relative cell count IC95. […]
# K562 = assay: Multiplexed cytotoxicity assay; format: cell-based; conditions: K562, blood leukemia, 72 hour
# Description: as §1, §2, §3, §4, §5, §6, §7, §8, §9
# HPH = assay: Multiplexed cytotoxicity assay; format: cell-based; conditions: normal primary hepatocyte, 72 hour
# Description: as §1, §2, §3, §4, §5, §6, §7, §8, §9
# HT-1080 = assay: Multiplexed cytotoxicity assay; format: cell-based; conditions: HT-1080, connective sarcoma, 72 hour
# Description: as §1, §2, §3, §4, §5, §6, §7, §8, §9
# A549 = assay: Multiplexed cytotoxicity assay; format: cell-based; conditions: A549, lung carcinoma, 72 hour
# Description: as §1, §2, §3, §4, §5, §6, §7, §8, §9
# U-87 MG = assay: Multiplexed cytotoxicity assay; format: cell-based; conditions: brain blastoma, 72 hour
# Description: as §1, §2, §3, §4, §5, §6, §7, §8, §9
# BxPC-3 = assay: Multiplexed cytotoxicity assay; format: cell-based; conditions: BxPC-3, pancreas carcinoma, 72 hour
# Description: as §1, §2, §3, §4, §5, §6, §7, §8, §9
# [1] = Multiplexed cytotoxicity assay; format: cell-based; conditions: human, read-out: Cytotoxic EC50
# Description: as §1, §2, §3, §4, §5, §6, §7, §8, §9
# HRPTEpiC = assay: Multiplexed cytotoxicity assay; format: cell-based; conditions: normal renal, 72 hour
# Description: as §1, §2, §3, §4, §5, §6, §7, §8, §9
# NHDF = assay: Multiplexed cytotoxicity assay; format: cell-based; conditions: normal skin, 72 hour
# Description: as §1, §2, §3, §4, §5, §6, §7, §8, §9
# SKOV3 = assay: Multiplexed cytotoxicity assay; format: cell-based; conditions: SKOV3, ovary carcinoma, 72 hour
# Description: as §1, §2, §3, §4, §5, §6, §7, §8, §9
# HeLa = assay: Multiplexed cytotoxicity assay; format: cell-based; conditions: cervix carcinoma, 72 hour
# Description: as §1, §2, §3, §4, §5, §6, §7, §8, §9
# HUVEC = assay: Multiplexed cytotoxicity assay; format: cell-based; conditions: normal endothelium, 72 hour
# Description: as §1, §2, §3, §4, §5, §6, §7, §8, §9
# [2] = Multiplexed cytotoxicity assay; format: cell-based, human; conditions: human, HepG2 cells (liver carcinoma), read-out: Cytotoxic EC50
# Description: as §1, §2, §3
# as §4, with “Curve-fitting, EC50/IC50 calculations and report generation are performed using a custom data reduction engine MathIQ based software (AIM).” left out
# HepG2 = assay: Multiplexed cytotoxicity assay; format: cell-based, human; conditions: HepG2, liver carcinoma, 72 hour
# Description: as §1, §2, §3
# as §4, with “Curve-fitting, EC50/IC50 calculations and report generation are performed using a custom data reduction engine MathIQ based software (AIM).” left out
smiles,measurement,setting,value
C[C@@H]1N[C@H](CNC(=O)c2cccc3c2C(=O)c2ccccc2-3)[C@@H](O)[C@H](O)[C@@H]1O [Compound II],G1/S arrest,HUMSC,10 µM
same,G1/S arrest,K562,93 µM
same,Primary effect,HPH,no effect
same,G1/S arrest,HT-1080,78 µM
same,G1/S arrest,A549,21 µM
same,G1/S arrest,U-87 MG,26 µM
same,G1/S arrest,BxPC-3,55 µM
same,EC50 at 72 h,[1]; A549 cells (lung carcinoma),29 µM
same,EC50 at 72 h,"[1]; BxPC-3 cells (pancreas carcinoma), BxPC-3, pancreas carcinoma",43 µM
same,EC50 at 72 h,"[1]; HPH (normal primary hepatocytes), normal primary hepatocyte",> 100 µM
same,EC50 at 72 h,[1]; HRPTEpiC cells (normal renal),72 µM
same,EC50 at 72 h,"[1]; HT-29 cells (colon carcinoma), HT-29, colon carcinoma",31 µM
same,EC50 at 72 h,"[1]; HT-1080 cells (connective sarcoma), HT-1080, connective sarcoma",21 µM
same,EC50 at 72 h,[1]; HUMSC cells (normal mesenchymal stem cells),9 µM
same,EC50 at 72 h,[1]; HUVEC cells (normal endothelium),14 µM
same,EC50 at 72 h,[1]; HeLa cells (cervix carcinoma),47 µM
same,EC50 at 72 h,[1]; K562 cells (blood leukemia),98 µM
same,EC50 at 72 h,[1]; LNCaP cells (prostate carcinoma),54 µM
same,EC50 at 72 h,"[1]; MDA-MB-231 cells (breast carcinoma), MDA-MB-231, breast carcinoma",44 µM
same,EC50 at 72 h,[1]; NHDF cells (normal skin),22 µM
same,EC50 at 72 h,[1]; SKOV3 cells (ovary carcinoma),> 100 µM
same,EC50 at 72 h,"[1]; SNU-423 cells (liver carcinoma), SNU-423, liver carcinoma",> 100 µM
same,EC50 at 72 h,[1]; U-87 MG cells (brain blastoma),34 µM
same,G1/S arrest,HRPTEpiC,10 µM
same,G1/S arrest,NHDF,14 µM
same,G1/S arrest,SKOV3,98 µM
same,G1/S arrest,HeLa,70 µM
same,G1/S arrest,HUVEC,14 µM
same,EC50 at 72 h,[2],44 µM
same,G1/S arrest,HepG2,36 µM
